Activity calls are given as the source filed them. No cut-off for these calls is given here.
Experiments:
Assay type in all cases: nucleic-acid assay
Nucleic Acid [1] = experiment: Induction of Escherichia coli supercoiled pBR322 DNA cleavage at 0.02 mM after 48 hrs by gel electrophoresis analysis
Nucleic Acid [2] = experiment: Induction of Escherichia coli supercoiled pBR322 DNA cleavage at 0.02 mM after 48 hrs by densitometric analysis
Nucleic Acid [3] = experiment: Binding affinity to calf thymus DNA by absorption titration analysis; conditions: Bos taurus

| Activity (Nucleic Acid [1]) | Activity (Nucleic Acid [2]) | K (Nucleic Acid [3]) | Compound |
| --- | --- | --- | --- |
| 10% | Active | 9 ×10⁴ /M | O=C(COc1ccccc1/N=N/c1ccccc1OCC(=O)N[C@@H](Cc1ccccc1)C(=O)OCC#CCS(=O)(=O)c1ccccc1)N[C@@H](Cc1ccccc1)C(=O)OCC#CCS(=O)(=O)c1ccccc1 |
| 20% | Active | 11 ×10⁴ /M | CC(C)[C@H](NC(=O)COc1ccccc1/N=N/c1ccccc1OCC(=O)N[C@H](C(=O)OCC#CCS(=O)(=O)c1ccccc1)C(C)C)C(=O)OCC#CCS(=O)(=O)c1ccccc1 |
| 25% | – | – | O=S(=O)(CC#CCOc1ccccc1/N=N/c1ccccc1OCC#CCS(=O)(=O)c1ccccc1)c1ccccc1 |
